Experimental data from patent publication US20180010188A1, “METHOD FOR DETECTING NONSENSE-MEDIATED RNA DECAY” (The Regents of the University of California, priority 2016, published 2018).

Experiments:
[1] = test system: NMD and non-NMD isoforms of Srsf11, Ptbp2, Tra2b, Hnrnpl and Psd-95 (cellular NMD activity); test: RT-qPCR of endogenous NMD and non-NMD isoforms to monitor cellular NMD activity; assay type: cell-based, mouse
From the text: In our method, we measure the individual abundance of NMD-sensitive isoforms and that of their non-NMD counterparts via quantitative real-time PCR (qPCR). The NMD isoforms are first examined for differential expression between a treatment and a control condition. An increase in a NMD isoform may be due to NMD inhibition, transcriptional activation or a change in alternative splicing favoring the NMD isoform. These three scenarios can be distinguished by examining the expression of the non-NMD counterparts. Genuine NMD regulation, transcriptional activation and alternative splicing regulation would lead to no change, upregulation and down-regulation of the NMD-insensitive isoforms, respectively (FIG. 6A).
One technical difficulty of our method is designing RT-qPCR primers specific to the cassette exon-skipping isoform, whose entire sequence is contained in the inclusion isoform. To specifically detect an inclusion isoform, we designed a primer entirely annealing to the cassette exon (exon B in FIG. 1A). For the exclusion isoform, junction primers annealing to the exon-skipping junction appear to be the only choices. This can be either a reverse primer (FIG. 1A) with its 5′ portion matching the downstream constitutive exon (exon C) and its 3′ portion matching the upstream constitutive exon (exon A) or a forward primer (not shown) with its 5′ and 3′ portions matching the upstream and downstream exons, respectively. The challenge is herein illustrated with reverse primers but also applies to forward primers. Many exon-skipping junction primers are able to amplify the inclusion isoforms (FIGS. 7A-D). The longer the 3′ portion of the junction primer annealing to the upstream constitutive exon, the easier the primer amplifies the inclusion transcripts (FIG. 7B). Some exon-skipping junction primers with 3′ portions as short as six nucleotides, as we've observed, can still anneal to and detect the inclusion isoform at 55-60° C., albeit at a lower efficiency than its detection of the exclusion isoform. On the other hand, a longer 5′ portion and a shorter 3′ portion increase the possibility of the primer annealing to the exon B-exon C junction because of the sequence similarity around 5′ splice sites (FIGS. 7C-D). We therefore had to identify NMD-associated cassette exons containing a 3′ end unlike that of its upstream exon. We then screened multiple exon-skipping junction primers for one that amplified only the exclusion isoform and not the inclusion isoform. All primer pairs were tested and confirmed for their specificity, RT-qPCR efficiency and linear dynamic ranges (FIG. 10). Finally, two stably expressed housekeeping genes, Gapdh and Sdha, were used as internal controls for normalization by geometric averaging (Vandesompele et al., 2002. Genome Biol 3: RESEARCH0034).
Because our method can be used on its own can to infer NMD regulation with a low false positive rate, one of its applications is unbiased screening for changes in cellular NMD activity. We screened a small panel of widely used pharmacological inhibitors for their effects on NMD. The expression of both the NMD and non-NMD isoforms of Ptbp2, Srsf11, Tra2b, Hnrnpl and Psd-95 were simultaneously measured before and after drug treatment. When the levels of all of the NMD isoforms were altered by a chemical in the same direction, the expression of the NMD and non-NMD isoforms under the treatment and control conditions was then subjected to ANOVA analysis to determine differential regulation of the two isoforms. We were interested in drugs that affected the NMD isoforms across the board and more strongly than the non-NMD counterparts. With this criterion, we identified thapsigargin as having potent activity in blocking cellular NMD.
Neuro-2a (N2a) cells were maintained in N2a complete media consisting of L-glutamine-free Dulbecco's modified Eagle's medium (DMEM), 10% FBS and 1× GlutaMAX at 37° C. […]

[2] = test system: cryptic isoforms of A230046K03Rik, Mib1 and Usp15; test: Quantitative analysis of TDP-43-repressed cryptic exon splicing; assay type: cell-based, mouse
From the text: To investigate the possible compounding effect of ER stress on TDP-43-mediated cryptic isoforms, we examined the expression of TDP-43-repressed cryptic exons with and without thapsigargin treatment. We designed specific PCR primers flanking the previously reported cryptic exons of A230046K03Rik, Mib1 and Usp15 and performed capillary electrophoresis to measure the ratios of the cryptic isoforms to the normal isoforms. The splicing of cryptic exons was not detected in cells treated with control siRNA or DMSO but was drastically boosted by RNAi-mediated depletion of Tdp-43 (FIGS. 5A-E).
Neuro-2a (N2a) cells were maintained in N2a complete media consisting of L-glutamine-free Dulbecco's modified Eagle's medium (DMEM), 10% FBS and 1× GlutaMAX at 37° C. Thapsigargin (VWR, cat. no. 89161-410), ionomycin (Fisher Scientific, cat. no. AG-CN2-0416-M001) and ouabain octahydrate (Fisher Scientific, cat. no. 80055-364) were dissolved in DMSO and stored at −80° C. […]
We optimized the PCR cycle numbers for Psd-95 (28 cycles), A230046K03Rik, Mib1 and Usp15 and eventually used 29 cycles for relative quantification of the transcript isoforms. […] The molar abundance (nM) of each isoform was quantified using QIAxcel Screengel software v1.4. Splicing of the cryptic exon was determined using the following formula. […]

[3] = N2a cells, 5 hours post-treatment

SMILES | concentration sufficient to revert the effect of thapsigargin on the NMD isoforms ([1]; N2a cells, thapsigargin plus GSK2606414, Psd-95, Ptbp2, Tra2b) [µM] | upregulation of the NMD isoforms in thapsigargin-treated cells ([1]; dose-dependent, 1 hour preincubation) | NMD activity in DMSO-treated cells ([1]; without thapsigargin) | NMD repression at 0.01 μM ([1]; 0.01 μM, 5 hours) | isoform upregulation relative to maximal upregulation ([1]; 0.02 μM) | earliest time of increase of NMD isoform transcripts ([1]; 0.2 μM thapsigargin, N2a cells) [h] | increase of non-NMD isoforms of Ptbp2 and Psd-95 ([1]; 0.2 μM, at 5 hours) | non-NMD isoform levels of Srsf11, Tra2b and Hnrnpl ([1]; 0.2 μM, at 5 hours) | fraction of full NMD inhibition detectable ([1]; 1 hour post-treatment, full inhibition at 5 hours) | concentration at which repressive effect on NMD started to plateau ([1]; N2a cells) [µM] | concentration at which Xbp1s splicing and NMD repression plateaued [1, 3] | lowest concentration at which NMD inhibition was observed [1, 3] [µM] | lowest concentration inhibiting NMD [1, 3] [nM] | NMD inhibition at concentrations above 0.2 μM ([1]; above 0.2 μM (data not shown)) | NMD isoforms in siPerk-pretreated cells ([1]; thapsigargin after 48 hours siPerk) | level of cryptic isoforms in mock-transfected or control siRNA-transfected cells ([2]; 0.2 μM thapsigargin) | level of cryptic isoforms in TDP-43-deficient cells ([2]; 0.2 μM thapsigargin after siTdp43)
Cn1cc(-c2ccc3c(c2)CCN3C(=O)Cc2cccc(C(F)(F)F)c2)c2c(N)ncnc21 [GSK2606414] | ≥ 0.1 | effectively reversed | did not affect |  |  |  |  |  |  |  |  |  |  |  |  |  | 
C/C=C(/C)C(=O)O[C@H]1C(C)=C2[C@H]([C@@H]1OC(=O)CCCCCCC)[C@@](C)(OC(C)=O)C[C@H](OC(=O)CCC)[C@@]1(O)[C@H]2OC(=O)[C@@]1(C)O [thapsigargin] |  |  |  | little NMD repression | about 20% | 1 | around 1.8 fold | barely changed | 20-30% | ≥ 0.2 | ≥ 0.1 | 0.02 | 20 | did not further increase NMD inhibition | none of the NMD isoforms were stimulated | no effect | further increased
